Reference: publication PMC4791274, “Cerdulatinib, a novel dual SYK/JAK kinase inhibitor, has broad anti-tumor activity in both ABC and GCB types of diffuse large B cell lymphoma” (Oncotarget, 2015)

What was measured:
[1] = test system: rat model of autoimmune disease; details: cited from earlier work
p-STAT3, p-AKT and p-ERK = test: phospho-flow assay in anti-BCR stimulated primary DLBCL cells; type: cell-based, human; details: 0.5 μM or 1 μM, 6 h, then IgM/IgG 15 min, six primary DLBCL samples
Method: GCB cell lines OCI-LY1, OCI-LY4, OCI-LY8, OCI-LY18, SUDHL6 and VAL were cultured in Iscove's Modified Dulbecco's Medium (IMDM) supplemented with 20% Fetal Bovine Serum (FBS) and 100 μg/mL penicillin/streptomycin. ABC cell lines SUDHL2 and HBL1 were cultured in RPMI1640 supplemented with 20% FBS and 100 μg/mL penicillin/streptomycin. OCI-LY3 cells were grown in RPMI1640 supplemented with 20% FBS, 100 μg/ml penicillin/streptomycin and HEPES. ABC cell lines OCI-LY10 was cultured in Iscove's Modified Dulbecco's Medium (IMDM) supplemented with 20% human serum and 100 μg/mL penicillin/streptomycin. ABC cell line U2932 was cultured in high glucose RPMI1640 supplemented with 20% FBS, 100 μg/ml penicillin/streptomycin. All cells were maintained in a humidified 37°C/5% CO2 incubator. Frozen primary DLBCL cells were obtained from the tumor bank of the Department of Pathology at Weill Cornell Medical College after Institutional Review Board review and approval. All primary cells were thawed as previously described and cultured in above conditions at 37°C for 6 h in the presence or absence of cerdulatinib followed by BCR stimulations with 5 μg/mL of IgM and IgG. The clinical characteristics of these patients are listed in the Supplemental Table 1. Cerdulatinib was kindly provided by Portola Pharmaceuticals Inc. (South San Francisco, CA) and stored as 10 mM stock at −20°C. […]

[2] = test system: patients with CLL and NHL; set-up: method as in Flinn I, et al. 2015 ASCO annual meeting Abstract #8531; details: oral, ref Flinn I, et al. 2015 ASCO annual meeting Abstract #8531; cited from earlier work
[3] = test system: primary human DLBCL samples; test: MTT viability of primary DLBCL samples; type: cell-based; details: 0.5 μM and 1 μM, 72 h, six primary samples
Method: GCB cell lines OCI-LY1, OCI-LY4, OCI-LY8, OCI-LY18, SUDHL6 and VAL were cultured in Iscove's Modified Dulbecco's Medium (IMDM) supplemented with 20% Fetal Bovine Serum (FBS) and 100 μg/mL penicillin/streptomycin. ABC cell lines SUDHL2 and HBL1 were cultured in RPMI1640 supplemented with 20% FBS and 100 μg/mL penicillin/streptomycin. OCI-LY3 cells were grown in RPMI1640 supplemented with 20% FBS, 100 μg/ml penicillin/streptomycin and HEPES. ABC cell lines OCI-LY10 was cultured in Iscove's Modified Dulbecco's Medium (IMDM) supplemented with 20% human serum and 100 μg/mL penicillin/streptomycin. ABC cell line U2932 was cultured in high glucose RPMI1640 supplemented with 20% FBS, 100 μg/ml penicillin/streptomycin. All cells were maintained in a humidified 37°C/5% CO2 incubator. […]
(§1) DLBCL cell lines were treated with various concentrations of cerdulatinib for up to 72 h. The metabolic activities of cells were determined with MTT assay according to manufacturer's instruction (Roche Applied Science, Indianapolis, IN) at 72 h time point. IC50 was calculated using the Sigma Plot generated with GraphPad Prism 6 software (GraphPad, La Jolla, CA). Cell growth was measured at every 24 h counting live cells with flow cytometry as previously described. Cells were collected every 24 h and cell viability was determined by the PE Annexin V Apoptosis Detection Kit I (BD Biosciences).

LCK = details: cited from earlier work
DHL2 cells = test: cell cycle analysis, BrdU incorporation; type: cell-based; details: DHL2, 48 h
Method: (§2) DLBCL cells were treated with various concentrations of cerdulatinib for 48 h. Cells were incubated with 10 μM BrdU (BD Biosciences, San Jose, CA) at 37°C for 2 h, and stained with PE conjugated anti-BrdU antibody (BD Biosciences) according to the supplier's manual. The percentage of cell cycle distribution was analyzed with FlowJo (Tree Star Inc. Ashland, OR).

LY3 cells = test: cell cycle analysis, BrdU incorporation; type: cell-based; details: LY3, 48 h
Method: as §2

DHL6 cells = test: cell cycle analysis, BrdU incorporation; type: cell-based; details: DHL6, 48 h
Method: as §2

HBL1 cells = test: cell cycle analysis, BrdU incorporation; type: cell-based; details: HBL1, 48 h
Method: as §2

LY18 cells [4] = test: cell cycle analysis, BrdU incorporation; type: cell-based; details: LY18, 48 h
Method: as §2

FLT3 = details: biochemical assay; cited from earlier work
JNK3 = details: biochemical assay; cited from earlier work
[5] = test system: splenomegaly induced by chronic BCR stimulation; details: mice; cited from earlier work
JAK2 [6] = details: biochemical assay; cited from earlier work
JAK1 = details: biochemical assay; cited from earlier work
ITK = details: biochemical assay; cited from earlier work
TSSK = details: biochemical assay; cited from earlier work
LY18 cells [7] = test: PARP and caspase 3 cleavage, Western blotting; type: cell-based; details: LY18, 48 h
Method: Immunoblotting were performed as previously described. Antibodies including total STAT3, SYK, PLCγ2, AKT, ERK1/2, PARP, caspase 3, and phosphorylated STAT3 (S727), STAT3 (Y705), SYK (Y525/526), PLCγ2 (Y759), PLCγ2 (Y1217), AKT (S473), ERK1/2 (Y204) and RB (S807/811) were purchased from Cell Signaling (Danvers, MA). Cyclin E antibody was purchased from Santa Cruz Biotechnology (Dallas, TX), and β-actin antibody was purchased from Sigma-Aldrich (St Louis, MO). Antibodies used in phosphoflow assay, including phosphorylated STAT3 (S727), SYK (Y525/526), PLCγ2 (Y759), AKT (S473), and ERK1/2 (Y204) were purchased from BD Biosciences (San Jose, CA).

MLK1 = details: biochemical assay; cited from earlier work
JAK3 = details: biochemical assay; cited from earlier work
ABC DLBCL cell lines = test: MTT assay, ABC cell lines; type: cell-based; details: ABC cell lines with relatively higher total and phosphorylated STAT3, 72 h
Method: as §1

JAK2 [8] = details: cited from earlier work
CHK1 = details: biochemical assay; cited from earlier work

## CCS(=O)(=O)N1CCN(c2ccc(Nc3ncc(C(N)=O)c(NC4CC4)n3)cc2)CC1 [cerdulatinib]
[1]
  inflammation: reduces inflammation
p-STAT3, p-AKT and p-ERK
  p-STAT3, p-AKT and p-ERK levels: marked and simultaneous down-regulation
[2]
  target tumor reductions: greater than 50%
[3]
  response of primary DLBCL cells (viability, MTT): responded to cerdulatinib in a concentration-dependent manner
LCK
  cellular activity against LCK: lacking cellular activity
DHL2 cells
  effect on S phase fraction: modest
LY3 cells
  effect on S phase fraction: modest
DHL6 cells
  S phase fraction: significant dose-dependent reduction
HBL1 cells
  S phase fraction: significant dose-dependent reduction
LY18 cells [4]
  S phase fraction: significant dose-dependent reduction
FLT3
  IC50: 90 nM
JNK3
  IC50: 18 nM
[5]
  splenomegaly: alleviates splenomegaly
JAK2 [6]
  IC50: 6 nM
JAK1
  IC50: 12 nM
ITK
  IC50: 194 nM
TSSK
  IC50: 14 nM
LY18 cells [7]
  PARP and caspase 3 cleavage: little changes
MLK1
  IC50: 5 nM
JAK3
  IC50: 8 nM
ABC DLBCL cell lines
  IC50: 0.29 to 1.8 µM
JAK2 [8]
  cellular activity against JAK2: lacking cellular activity
CHK1
  IC50: 42 nM
